Measured values: the supplement of paper PMC10307832

Experiments:
Test in all cases: relative viability (nuclei count vs DMSO), 5 days (fraction); higher = more cells survive
Bortezomib + Trametinib = compound: CC(C)C[C@H](NC(=O)[C@H](Cc1ccccc1)NC(=O)c1cnccn1)B(O)O [Bortezomib] + CC(=O)Nc1cccc(-n2c(=O)n(C3CC3)c(=O)c3c(Nc4ccc(I)cc4F)n(C)c(=O)c(C)c32)c1 [Trametinib] (partner 0.02 µM)
Procedure, shortened: (§1)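 Relative viability equals treated-well nuclei counts divided by vehicle-well nuclei counts. Counts came from 4× images of lung cancer cell lines grown in 1536-well plates for 5 days after pin-tool dosing on the day after seeding. Dosing used one drug alone or a fixed anchor-drug dose plus five library-drug doses (not always all listed) in √10 steps, and values are medians of duplicate plates.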

Bortezomib + Linsitinib = compound: CC(C)C[C@H](NC(=O)[C@H](Cc1ccccc1)NC(=O)c1cnccn1)B(O)O [Bortezomib] + C[C@]1(O)C[C@@H](c2nc(-c3ccc4ccc(-c5ccccc5)nc4c3)c3c(N)nccn32)C1 [Linsitinib] (partner 1 µM)
Procedure, shortened: as §1

[1] = compound: CC1=CC(=NN1)NC2=CC(=NC(=N2)/C=C/C3=CC=CC=C3)N4CCN(CC4)C + C[C@@H](Oc1cc(-c2cnn(C3CCNCC3)c2)cnc1N)c1c(Cl)ccc(F)c1Cl [Crizotinib] (partner 1 µM)
Procedure, shortened: as §1

Bortezomib + Navitoclax = compound: CC(C)C[C@H](NC(=O)[C@H](Cc1ccccc1)NC(=O)c1cnccn1)B(O)O [Bortezomib] + CC1(C)CCC(c2ccc(Cl)cc2)=C(CN2CCN(c3ccc(C(=O)NS(=O)(=O)c4ccc(N[C@H](CCN5CCOCC5)CSc5ccccc5)c(S(=O)(=O)C(F)(F)F)c4)cc3)CC2)C1 [Navitoclax] (partner 0.5 µM)
Procedure, shortened: as §1

Cell Line | relative viability (Bortezomib + Trametinib; first compound 0.0002 µM) | relative viability (Bortezomib + Trametinib; first compound 0.000632 µM) | relative viability (Bortezomib + Trametinib; first compound 0.002 µM) | relative viability (Bortezomib + Trametinib; first compound 0.006325 µM) | relative viability (Bortezomib + Trametinib; first compound 0.02 µM) | relative viability (Bortezomib + Linsitinib; first compound 0.0002 µM) | relative viability (Bortezomib + Linsitinib; first compound 0.000632 µM) | relative viability (Bortezomib + Linsitinib; first compound 0.002 µM) | relative viability (Bortezomib + Linsitinib; first compound 0.006325 µM) | relative viability (Bortezomib + Linsitinib; first compound 0.02 µM) | relative viability ([1]; first compound 0.08 µM) | relative viability ([1]; first compound 0.253 µM) | relative viability ([1]; first compound 0.8 µM) | relative viability ([1]; first compound 2.53 µM) | relative viability ([1]; first compound 8 µM) | relative viability (Bortezomib + Navitoclax; first compound 0.0002 µM) | relative viability (Bortezomib + Navitoclax; first compound 0.000632 µM) | relative viability (Bortezomib + Navitoclax; first compound 0.002 µM) | relative viability (Bortezomib + Navitoclax; first compound 0.006325 µM) | relative viability (Bortezomib + Navitoclax; first compound 0.02 µM)
NCI-H358 | 0.12 | 0.121 | 0.133 | 0.094 | 0.0906 | 0.755 | 0.622 | 0.625 | 0.162 | 0.141 | 0.607 | 0.478 | 0.264 | 0.14 | 0.11 | – | – | – | – | –
SW 1573 | 0.55 | 0.612 | 0.291 | 0.074 | 0.0469 | 0.663 | 0.775 | 0.766 | 0.144 | 0.0774 | 0.886 | 0.829 | 0.604 | 0.194 | 0.1 | 0.849 | 1.12 | 0.928 | 0.0531 | 0.0615
NCI-H1993 | 0.51 | 0.507 | 0.527 | 0.452 | 0.375 | 0.683 | 0.766 | 0.733 | 0.499 | 0.58 | 0.883 | – | 0.739 | 0.551 | 0.526 | 0.94 | 0.982 | 1.01 | 0.52 | 0.48
NCI-H661 | 0.526 | 0.493 | 0.62 | 0.364 | 0.207 | 0.62 | 0.552 | 0.46 | 0.311 | 0.181 | – | 1.23 | 1.08 | 0.945 | 0.383 | – | – | – | – | –
UMC-11 | 0.731 | 0.845 | 0.574 | 0.296 | 0.132 | 0.937 | 0.974 | 0.936 | 0.375 | 0.176 | 0.519 | 0.528 | 0.41 | 0.0737 | 0.062 | 0.288 | 0.281 | 0.315 | 0.12 | 0.101
NCI-H520 | 0.667 | 0.741 | 0.451 | 0.141 | 0.128 | 1.12 | 0.991 | 0.483 | 0.137 | 0.143 | 0.798 | 0.778 | 0.473 | 0.251 | 0.0942 | 1 | 0.959 | 0.347 | 0.145 | 0.157
ChaGo-K-1 | 0.882 | 0.89 | 0.85 | 0.279 | 0.144 | – | – | – | – | – | 1.1 | 1.07 | 1.13 | 0.484 | 0.267 | – | – | 0.964 | 0.307 | 0.2
NCI-H2085 | 0.622 | 0.501 | 0.54 | 0.228 | 0.155 | 0.901 | 0.901 | 0.726 | 0.262 | 0.145 | 0.859 | 0.831 | 0.753 | 0.343 | 0.266 | 1.18 | 1.14 | 1.05 | 0.248 | 0.211
NCI-H1651 | 0.802 | 0.843 | 0.726 | 0.155 | 0.117 | 0.943 | 0.996 | 0.31 | 0.133 | 0.12 | 0.839 | 0.911 | 0.808 | 0.738 | 0.482 | 1.17 | 0.958 | 0.263 | 0.14 | 0.101
NCI-H2170 | 0.892 | 0.921 | 0.972 | 0.229 | 0.142 | – | – | – | – | – | 1.23 | 1.13 | 1.12 | 0.434 | 0.16 | 0.425 | 0.548 | 0.6 | 0.169 | 0.172
NCI-H1703 | – | – | – | – | – | 1.07 | 0.438 | 0.252 | 0.0867 | 0.0799 | 0.636 | 0.597 | 0.339 | 0.101 | 0.0884 | 1.21 | 1.01 | 0.188 | 0.139 | 0.085
NCI-H1650 | 0.627 | 0.572 | 0.128 | 0.132 | 0.129 | – | – | – | – | – | 1.07 | 1.05 | 0.63 | 0.192 | 0.109 | 1.17 | 1.17 | 0.191 | 0.119 | 0.106
NCI-H522 | 0.753 | 0.821 | 0.796 | 0.387 | 0.331 | – | – | – | – | – | – | – | – | – | – | – | – | – | – | –
LCLC-103H | 0.661 | 0.687 | 0.589 | 0.336 | 0.256 | 1.06 | 1.07 | 1.25 | 1.09 | 0.272 | 0.993 | 1.19 | 1.19 | 1.07 | 0.302 | – | – | – | – | –
NCI-H1563 | – | – | – | – | – | 1.25 | 1.25 | 1.02 | 0.534 | 0.466 | 0.985 | 0.896 | 0.904 | 0.65 | 0.614 | – | – | – | – | –
NCI-H2342 | 0.869 | 0.965 | 0.815 | 0.924 | 0.386 | – | – | – | – | – | – | – | – | – | – | – | – | – | – | –
IA-LM | – | – | – | – | – | 0.907 | 0.682 | 0.577 | 0.161 | 0.0151 | – | 0.899 | 0.884 | 0.38 | 0.0798 | 1.07 | 0.865 | 0.994 | 0.0167 | 0.0073
NCI-H1793 | 0.445 | – | 0.457 | 0.414 | 0.132 | 0.771 | 0.723 | 0.808 | 0.778 | 0.149 | – | – | – | – | – | 0.418 | 0.463 | 0.599 | 0.409 | 0.149
EBC-1 | – | – | – | – | – | 0.902 | 0.801 | 0.516 | 0.0706 | 0.0667 | 0.188 | 0.185 | 0.213 | 0.137 | 0.108 | 0.439 | 0.299 | 0.195 | 0.0921 | 0.104
NCI-H1648 | 0.465 | 0.594 | 0.371 | 0.263 | 0.389 | – | – | – | – | – | – | – | – | – | – | – | – | – | – | –
NCI-H1299 | – | – | – | – | – | 1 | 0.917 | 1.1 | 0.452 | 0.118 | 0.951 | 0.938 | 0.938 | 0.442 | 0.222 | 0.981 | 0.988 | 1.01 | 0.397 | 0.142
